Source: patent US20220112149A1, “DRUG DESIGN METHOD ASSOCIATED WITH NATURAL PRODUCTS, PENTACYCLIC TRITERPENOID COMPOUND, PREPARATION METHOD AND APPLICATIONS THEREOF” (Huazhong Agricultural University, priority 2020, published 2022)

System: ICAM-1 expression in HMEC-1 cells
Assay: LPS-induced ICAM-1 expression in HMEC-1 cells, flow cytometry
Type: cell-based, human
Protocol: (3) Screening candidate molecules with the strongest ICAM-1 inhibitory activity by simulating the physiological model of inflammation that human microvascular endothelial cells (HMEC-1) expressing cell adhesion molecules (ICAM-1) mediate lymphocytes to penetrate blood vessels to infiltrate the damaged tissues. The specific steps are as follows:
(§1) 1) Culture of HMEC-1 cells: HMEC-1 cells are cultured in MCDB131 medium (U.S. Sigma) that contain 10% fetal bovine serum (FBS, Zhejiang Tianhang Biotechnology Co., Ltd.), double antibody (100 U/mL penicillin and 100 μg/mL streptomycin), 1 μg/mL hydrocortisone (Sangon Biotech (Shanghai) Co., Ltd.) and 10 ng/mL human recombinant growth factor (hEGF, Sangon Biotech (Shanghai) Co., Ltd.) at 37° C., 5% CO2, and 100% RH.
2) HMEC-1 cells are inoculated into a 24-well plate, and cultured in a cell incubator at 37° C., 5% CO2, and 100% RH. When the cells grow to 80% abundance, different concentrations of drugs are added for 3 h (1 μM Celastrol as a positive control drug). At the end of treatment, 1 μg/mL LPS is added to activate the NF-κB signaling pathway for 12 hours. After activation, the supernatant medium is discarded, and washed three times with PBS, and 100 μL of 0.25% pancreatin (containing 0.5 mM EDTA) is added to digest in a 37° C. incubator for 3 min. When most of cells are shed, 150 μL of MCDB131 complete medium is added to terminate the digestion, shaken for 3 min, then cells are transferred to a V-shaped 96-well plate (Corning), centrifuged at 4° C., 3000 rpm for 3 min to precipitate cells. Then the supernatant medium is discarded, 100 μL of pH=7.4 buffer A (PBS+0.5% BSA+1 mM MgCl2) is added to each well, to wash once, centrifuged at 4° C., 3000 rpm for 3 min, and the buffer A is aspirated. To each well, 100 μL of PBS solution containing 5% bovine serum albumin is added, and shaken and blocked at 120 rpm for 30 min at room temperature; after blocking, centrifuged at 4° C. and 2000 rpm for 3 min, and the supernatant is discarded, 20 μl of buffer A containing 5 μg/mL of primary antibody anti-ICAM-1 antibody LB-2, shaken and incubated at room temperature at 120 rpm for 1 h, using the buffer A without adding anti-ICAM-1 antibody LB-2 as the negative control. By detecting anti-ICAM-1 fluorescence value by flow cytometry, the expression of ICAM-1 protein in HMEC-1 cells is detected indirectly. Three duplicate wells are established for each concentration. PBS is set as a blank control, 1 uM of Celastrol is set as a positive control, to analyze the inhibitory effect of different concentrations of drugs on the expression level of ICAM-1.
as §1, with “U/ml” for “U/mL”, “μg/ml” for “μg/mL”, “Biotech)” for “Biotech (Shanghai) Co., Ltd.)”, “ng/ml” for “ng/mL”
HMEC-1 cells are inoculated into a 24-well plate, and cultured in a cell incubator at 37° C., 5% CO2, and 100% RH. When the cells grow to 80% abundance, different concentrations of drugs are added for 3 h (1 μM Celastrol as a positive control drug). At the end of treatment, 1 μg/mL LPS is added to activate the NF-κB signaling pathway for 12 hours. After activation, the supernatant medium is discarded, and washed three times with PBS, and 100 μL of 0.25% pancreatin (containing 0.5 mM EDTA) is added to digest in a 37° C. incubator for 3 min. When most of cells are shed, 150 μL of MCDB131 complete medium is added to terminate the digestion, shaken for 3 min, then cells are transferred to a V-shaped 96-well plate (Corning), centrifuged at 4° C., 3000 rpm for 3 min to precipitate cells. Then the supernatant medium is discarded, 100 μL of pH=7.4 buffer A (PBS+0.5% BSA+1 mM MgCl2) is added to each well, to wash once, centrifuged at 4° C., 3000 rpm for 3 min, and the buffer A is aspirated. […]

## CC1(C(=O)O)CCC2(C)CCC3(C)C(=CC(=O)C4C5(C)C=C(O)C(=O)C(C)(C)C5CCC43C)C2C1 (stereo not shown) [GA-02, 3,11-dicarbonyl-1,12-diene-2-hydroxy-oleanane-30 carboxylic acid]
  anti-inflammatory activity compared with reference compounds: effectively improved compared with 18β-glycyrrhetinic acid
  anti-inflammatory activity, times lower than that of Celastrol: 10 times
10 μM
  ICAM-1 inhibitory activity compared with Celastrol: equivalent to 1 μM Celastrol
Different concentrations
  ICAM-1 inhibitory activity, concentration dependence: concentration-dependent ICAM-1 inhibitory activity
